Measured values taken from patent US10004732B2 (Novartis AG, priority 2014, dated 2018).

Tests used:
PI 3-kinase alpha [1] = target: T1, PI 3-kinase alpha (Homo sapiens, UniProt P42336); assay: Kinase Glo Luminescent Kinase Assay (Kglo), assay A; type: biochemical; conditions: read-out: Assay A PI3Kα IC50
Target sequence in this assay (P42336 whole entry): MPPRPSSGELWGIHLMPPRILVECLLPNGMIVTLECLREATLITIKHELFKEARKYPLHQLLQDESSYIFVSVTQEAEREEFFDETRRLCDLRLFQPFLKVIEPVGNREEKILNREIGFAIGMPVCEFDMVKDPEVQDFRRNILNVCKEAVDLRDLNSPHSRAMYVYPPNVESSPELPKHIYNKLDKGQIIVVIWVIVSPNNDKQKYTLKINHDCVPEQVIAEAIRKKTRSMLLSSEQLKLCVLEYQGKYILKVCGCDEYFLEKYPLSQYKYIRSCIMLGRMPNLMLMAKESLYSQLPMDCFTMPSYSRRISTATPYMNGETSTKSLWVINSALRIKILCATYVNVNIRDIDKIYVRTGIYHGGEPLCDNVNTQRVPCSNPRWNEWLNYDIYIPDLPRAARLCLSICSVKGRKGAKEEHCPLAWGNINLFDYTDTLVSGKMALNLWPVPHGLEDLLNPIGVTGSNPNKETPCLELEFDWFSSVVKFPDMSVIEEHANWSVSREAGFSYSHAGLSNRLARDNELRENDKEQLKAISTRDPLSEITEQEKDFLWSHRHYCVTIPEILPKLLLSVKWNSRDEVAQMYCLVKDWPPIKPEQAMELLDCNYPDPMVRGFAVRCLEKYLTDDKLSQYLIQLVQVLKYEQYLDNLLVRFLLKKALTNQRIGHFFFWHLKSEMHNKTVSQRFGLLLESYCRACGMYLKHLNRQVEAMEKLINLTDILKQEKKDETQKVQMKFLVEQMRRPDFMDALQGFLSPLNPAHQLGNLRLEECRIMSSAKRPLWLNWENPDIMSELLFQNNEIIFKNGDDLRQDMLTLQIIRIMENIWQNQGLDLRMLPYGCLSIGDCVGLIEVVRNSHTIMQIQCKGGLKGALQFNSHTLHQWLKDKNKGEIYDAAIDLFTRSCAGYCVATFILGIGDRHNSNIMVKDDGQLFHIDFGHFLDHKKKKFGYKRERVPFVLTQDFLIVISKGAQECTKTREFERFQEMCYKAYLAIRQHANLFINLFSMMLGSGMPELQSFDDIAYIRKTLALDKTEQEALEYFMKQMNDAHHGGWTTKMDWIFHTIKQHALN

PI 3-kinase beta [2] = target: T2, PI 3-kinase beta (Homo sapiens, UniProt P42338); assay: Kinase Glo Luminescent Kinase Assay (Kglo), assay B; type: biochemical; conditions: read-out: Assay B PI3Kβ IC50
Target sequence in this assay (P42338 whole entry): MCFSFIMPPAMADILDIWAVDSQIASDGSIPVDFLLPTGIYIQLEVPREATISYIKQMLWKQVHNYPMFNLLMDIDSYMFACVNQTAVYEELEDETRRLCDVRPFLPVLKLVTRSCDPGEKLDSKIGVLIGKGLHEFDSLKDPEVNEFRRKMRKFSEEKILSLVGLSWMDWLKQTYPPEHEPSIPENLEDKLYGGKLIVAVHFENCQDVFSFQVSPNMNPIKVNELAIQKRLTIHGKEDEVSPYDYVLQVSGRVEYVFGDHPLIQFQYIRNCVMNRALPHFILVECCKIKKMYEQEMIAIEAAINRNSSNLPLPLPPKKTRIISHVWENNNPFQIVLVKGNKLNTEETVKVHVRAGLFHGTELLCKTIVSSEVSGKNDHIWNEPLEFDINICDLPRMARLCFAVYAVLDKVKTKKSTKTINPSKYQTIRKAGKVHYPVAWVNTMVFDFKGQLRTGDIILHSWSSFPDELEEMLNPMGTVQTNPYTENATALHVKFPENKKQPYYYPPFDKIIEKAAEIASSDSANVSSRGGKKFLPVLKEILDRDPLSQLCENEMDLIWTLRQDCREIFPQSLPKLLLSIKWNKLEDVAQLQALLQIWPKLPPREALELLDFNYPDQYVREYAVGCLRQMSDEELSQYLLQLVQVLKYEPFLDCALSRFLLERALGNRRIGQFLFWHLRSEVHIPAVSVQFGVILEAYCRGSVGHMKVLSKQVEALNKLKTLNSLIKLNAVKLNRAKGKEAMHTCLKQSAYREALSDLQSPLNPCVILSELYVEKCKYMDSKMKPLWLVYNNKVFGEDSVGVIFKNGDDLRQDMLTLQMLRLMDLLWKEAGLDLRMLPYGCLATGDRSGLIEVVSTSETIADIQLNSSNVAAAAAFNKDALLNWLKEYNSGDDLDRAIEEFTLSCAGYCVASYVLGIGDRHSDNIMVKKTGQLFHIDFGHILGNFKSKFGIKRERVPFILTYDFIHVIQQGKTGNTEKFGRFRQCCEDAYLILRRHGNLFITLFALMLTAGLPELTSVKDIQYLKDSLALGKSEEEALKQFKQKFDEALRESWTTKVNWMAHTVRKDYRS
Target sequence in this assay (P27986 461-568 partner): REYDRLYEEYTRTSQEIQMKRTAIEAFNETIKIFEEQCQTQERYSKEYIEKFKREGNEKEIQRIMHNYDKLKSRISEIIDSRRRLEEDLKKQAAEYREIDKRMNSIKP

Vps34 = Vps34 (Homo sapiens, UniProt Q8NEB9); assay: Kinase Glo Luminescent Kinase Assay (Kglo), assay C; type: biochemical; conditions: read-out: Assay C VPS34 IC50
Chain of Vps34 (Q8NEB9 whole entry, species assumed): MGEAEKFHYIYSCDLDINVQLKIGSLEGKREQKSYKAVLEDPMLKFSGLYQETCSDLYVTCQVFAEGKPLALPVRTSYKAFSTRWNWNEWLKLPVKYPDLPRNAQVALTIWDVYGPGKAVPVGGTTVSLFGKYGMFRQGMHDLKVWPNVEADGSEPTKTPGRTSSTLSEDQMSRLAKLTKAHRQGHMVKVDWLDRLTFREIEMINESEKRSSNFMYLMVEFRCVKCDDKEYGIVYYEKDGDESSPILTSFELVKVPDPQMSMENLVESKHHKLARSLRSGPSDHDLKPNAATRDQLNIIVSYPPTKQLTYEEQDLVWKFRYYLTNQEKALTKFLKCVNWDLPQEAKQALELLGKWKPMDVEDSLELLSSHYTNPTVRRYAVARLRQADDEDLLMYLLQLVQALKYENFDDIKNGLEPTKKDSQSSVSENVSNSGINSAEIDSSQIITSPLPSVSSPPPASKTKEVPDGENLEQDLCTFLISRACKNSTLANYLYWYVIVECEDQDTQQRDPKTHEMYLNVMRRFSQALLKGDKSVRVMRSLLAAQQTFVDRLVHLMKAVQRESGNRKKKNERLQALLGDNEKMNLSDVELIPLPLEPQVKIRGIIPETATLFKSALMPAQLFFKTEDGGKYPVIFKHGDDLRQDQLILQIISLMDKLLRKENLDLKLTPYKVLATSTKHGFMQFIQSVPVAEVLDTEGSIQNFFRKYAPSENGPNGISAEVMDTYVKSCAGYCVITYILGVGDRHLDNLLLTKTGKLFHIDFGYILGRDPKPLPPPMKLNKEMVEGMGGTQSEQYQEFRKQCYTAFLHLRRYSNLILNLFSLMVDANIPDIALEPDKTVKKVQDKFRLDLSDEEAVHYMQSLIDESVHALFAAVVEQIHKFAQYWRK

PI 4-kinase beta = PI 4-kinase beta (Homo sapiens, UniProt Q9UBF8); assay: Kinase Glo Luminescent Kinase Assay (Kglo), assay D; type: biochemical; conditions: read-out: Assay D PI4Kβ IC50
Chain of PI 4-kinase beta (Q9UBF8 whole entry): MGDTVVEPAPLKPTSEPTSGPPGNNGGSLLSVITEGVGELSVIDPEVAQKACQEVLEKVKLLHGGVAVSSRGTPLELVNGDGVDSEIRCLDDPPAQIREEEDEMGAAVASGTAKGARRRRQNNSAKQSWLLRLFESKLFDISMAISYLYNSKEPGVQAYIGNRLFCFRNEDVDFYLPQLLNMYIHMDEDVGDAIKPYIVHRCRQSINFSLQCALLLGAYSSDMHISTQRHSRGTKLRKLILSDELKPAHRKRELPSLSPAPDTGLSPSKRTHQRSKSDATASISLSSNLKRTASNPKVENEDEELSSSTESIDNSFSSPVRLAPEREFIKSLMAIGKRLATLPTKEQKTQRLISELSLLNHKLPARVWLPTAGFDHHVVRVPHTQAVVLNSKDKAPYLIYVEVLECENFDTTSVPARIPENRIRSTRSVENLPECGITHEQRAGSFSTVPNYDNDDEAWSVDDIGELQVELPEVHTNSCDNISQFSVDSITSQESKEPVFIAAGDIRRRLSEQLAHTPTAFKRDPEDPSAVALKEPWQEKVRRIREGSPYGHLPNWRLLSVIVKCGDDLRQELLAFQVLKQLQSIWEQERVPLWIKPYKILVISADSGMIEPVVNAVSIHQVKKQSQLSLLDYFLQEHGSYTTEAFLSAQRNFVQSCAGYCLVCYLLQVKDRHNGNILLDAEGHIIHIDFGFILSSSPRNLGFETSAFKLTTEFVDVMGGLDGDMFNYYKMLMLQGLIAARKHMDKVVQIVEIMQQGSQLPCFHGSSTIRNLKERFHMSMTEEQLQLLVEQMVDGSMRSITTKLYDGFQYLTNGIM
Description: Kinase Glo Luminescent Kinase Assay (Kglo) for Pb 3-Kinase Alpha (A), Pb 3-Kinase Beta (B), Vps34 (C), Pb 4-Kinase Beta (D)
The Kinase Glo Luminescent Kinase Assay (Promega, Madison/Wis., USA) is a homogeneous HTS method of measuring kinase activity by quantifying the amount of ATP remaining in solution following a kinase reaction.
L-α-phosphatidylinositol (PI), provided as 10 mg/ml solution in methanol, was transferred into a glass tube and dried under a nitrogen beam. It was then resuspended in 3% OctylGlucoside (1-0-n-octyl-beta-D-glucopyranoside) by vortexing and stored at 4° C. 5 μL of a mix of PI/OctylGlucoside with the PI 3-kinase alpha and PI 3-kinase beta subtypes, or Vps34 or PI 4-kinase beta were added. Kinase reactions were started by the addition of 5 μl of an ATP-mix containing in a final volume 10 μL 10 mM TRIS-HCl pH 7.5, 3 mM MgCl2, 50 mM NaCl, 0.05% CHAPS, 1 mM DTT and 1 μM ATP at room temperature.
All fits were performed with the program XLfit4 (ID Business Solutions, Guildford, UK).

PI 3-kinase gamma [3] = target: T3, PI 3-kinase gamma (Homo sapiens, UniProt P48736); assay: TR-FRET Adapta assay, assay E; type: biochemical; conditions: read-out: Assay E PI3Kγ IC50
PI 3-kinase alpha [4] = target: T1, PI 3-kinase alpha; assay: Cellular assay H2, p-AKT (Ser473) in Rat-1 cells, HTRF format; type: cell-based; conditions: asterisked data: version H2 (HTRF format), read-out: Assay H PI3Kα IC50
Target sequence in this assay (P42336 whole entry): as the sequence (P42336 whole entry) above
Target sequence in this assay (Q63787 whole entry partner): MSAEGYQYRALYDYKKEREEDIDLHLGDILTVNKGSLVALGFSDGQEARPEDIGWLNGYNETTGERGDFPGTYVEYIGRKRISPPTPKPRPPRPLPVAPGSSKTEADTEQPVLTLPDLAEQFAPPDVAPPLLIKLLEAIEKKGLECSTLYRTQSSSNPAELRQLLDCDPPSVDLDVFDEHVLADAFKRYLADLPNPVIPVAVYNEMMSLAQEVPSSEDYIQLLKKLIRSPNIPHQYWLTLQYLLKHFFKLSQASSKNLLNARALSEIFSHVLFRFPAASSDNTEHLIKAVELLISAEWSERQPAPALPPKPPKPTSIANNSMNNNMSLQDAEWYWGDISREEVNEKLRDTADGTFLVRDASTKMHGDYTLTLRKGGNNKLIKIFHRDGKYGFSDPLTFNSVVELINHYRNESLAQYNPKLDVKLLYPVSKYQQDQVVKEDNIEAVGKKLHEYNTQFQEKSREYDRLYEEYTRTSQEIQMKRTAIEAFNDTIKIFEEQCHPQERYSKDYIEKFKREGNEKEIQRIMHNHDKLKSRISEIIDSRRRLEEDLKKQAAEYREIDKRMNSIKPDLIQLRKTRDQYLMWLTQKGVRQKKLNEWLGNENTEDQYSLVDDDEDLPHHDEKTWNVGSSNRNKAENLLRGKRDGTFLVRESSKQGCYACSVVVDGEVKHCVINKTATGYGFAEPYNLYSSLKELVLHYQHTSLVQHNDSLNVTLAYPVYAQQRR
Description: (§1) Cellular Assays for PI 3-Kinase Alpha (H2), Beta (12) and Delta (J2): HTRF (Homogeneous Time Resolved Fluorescence) Format
(§2) All cell lines were cultivated in complete growth medium (DMEM high glucose GlutaMAX™ Pyruvate, 10% (v/v) fetal bovine serum, 0.1 mM MEM NEAA, 25 mM HEPES, puromycin 10 μg/mL, 100 U/ml Penicillin, 100 μg/ml Streptomycin) to 90% confluency at 37° C./5% CO2/90% humidity in a humidified CO2 incubator and were split twice a week.
(§3) Semi-automated preparation of cell lysates: For low (inhibited) controls, 0.9 mM NVP-BGT226-AF-1 in 90% (v/v) DMSO was added to the compound master plate. For compound testing, the cells were seeded at a density of 4000 (Rat-1_PI3Kdelta), 8000 (Rat-1_PI3Kalpha), or 6500 (Rat-1_PI3Kbeta) cells in 30 μl complete growth medium into cell culture treated 384-well plates and were grown at 37° C./5% CO2/90% humidity for 24 h. 10 μl of the compound predilutions were transferred to the cells.

PI 3-kinase beta [5] = target: T2, PI 3-kinase beta; assay: Cellular assay I2, p-AKT (Ser473) in Rat-1 cells, HTRF format; type: cell-based; conditions: asterisked data: version I2 (HTRF format), read-out: Assay I PI3Kβ IC50
Target sequence in this assay (P42338 whole entry): as the sequence (P42338 whole entry) above
Target sequence in this assay (Q63787 whole entry partner): as the sequence (Q63787 whole entry partner) above
Description: as §1, §2, §3

PI 3-kinase delta [6] = target: T4, PI 3-kinase delta (Homo sapiens, UniProt O00329); assay: Cellular assay J2, p-AKT (Ser473) in Rat-1 cells, HTRF format; type: cell-based; conditions: asterisked data: version J2 (HTRF format), read-out: Assay J PI3Kδ IC50
Description: as §1, §2, §3

PI 3-kinase delta [7] = target: T4, PI 3-kinase delta; assay: TR-FRET Adapta assay, assay F
[8] = Microsomal clearance assay (M); conditions: intrinsic clearance in rat liver microsomes
Description: The experiments were performed in 96-well glass plates at 37° C. on an automated Tecan EVO platform. Test compounds at a concentration of 10 mM in pure DMSO were diluted 1:1000 in water to 10 μM. […] Reactions were initiated by the addition of 150 μL of a cofactor solution containing 2 mM NADPH.

mTOR = mTOR (Homo sapiens, UniProt P42345); assay: Lanthascreen kinase binding assay, assay G; conditions: read-out: Assay G mTOR IC50
Description: Lanthascreen™ Kinase Binding Assay for mTOR (G)
Binding of an inhibitor to the kinase competes for binding with the tracer, resulting in a loss of FRET.
50 nL of compound dilutions were dispensed onto white 384-well small volume polystyrene plate.

PI 3-kinase alpha [9] = target: T1, PI 3-kinase alpha; assay: Cellular assay H1, p-Akt (S473) in Rat-1 cells, Surefire format; type: cell-based; conditions: non-asterisked data: version H1 (Surefire format), Rat-1 cells; read-out: Assay H PI3Kα IC50
Target sequence in this assay (P42336 whole entry): as the sequence (P42336 whole entry) above
Target sequence in this assay (Q63787 whole entry partner): as the sequence (Q63787 whole entry partner) above

PI 3-kinase beta [10] = target: T2, PI 3-kinase beta; assay: Cellular assay I1, p-Akt (S473) in Rat-1 cells, Surefire format; type: cell-based; conditions: non-asterisked data: version I1 (Surefire format), Rat-1 cells; read-out: Assay I PI3Kβ IC50
Target sequence in this assay (P42338 whole entry): as the sequence (P42338 whole entry) above
Target sequence in this assay (Q63787 whole entry partner): as the sequence (Q63787 whole entry partner) above

PI 3-kinase delta [11] = target: T4, PI 3-kinase delta; assay: Cellular assay J1, p-Akt (S473) in Rat-1 cells, Surefire format; type: cell-based; conditions: non-asterisked data: version J1 (Surefire format), Rat-1 cells; read-out: Assay J PI3Kδ IC50
PI 3-kinase gamma [12] = target: T3, PI 3-kinase gamma; assay: Cellular U937 AKT assay K1 (MSD); type: cell-based; conditions: U937 cells, K1 format; read-out: Assay K1 PI3Kγ IC50
PI 3-kinase gamma [13] = target: T3, PI 3-kinase gamma; assay: Cellular U937 AKT assay K2 (HTRF); type: cell-based; conditions: U937 cells, K2 format; read-out: Assay K2 PI3Kγ IC50
Description: In assays K1 and K2, the compounds were tested for their ability to inhibit the production of phosphorylated AKT (Protein Kinase B) generated in a PI 3-kinase gamma isoform-dependent process in a U937 human cell line.
Cellular U937 AKT Assay for PI 3-Kinase Gamma (K2)
U937 cells are split every 3-4 days: 5×10^6 cells/flask (175 cm^2) in 40 ml.
Semi-automated preparation of cell lysates: Cells were resuspended in HBSS, seeded (200′000 cells/well/60 μl) into a 384-well plate and incubated in a humidified 37° C., 5% CO2 incubator for 1.5 hours. The compounds were diluted with HBSS and 40 μl were added to the starved cells (except for wells 24 I-P). […] The cells were then incubated for 30 minutes at 37° C. and 5% CO2. Stimulation occurred during 3 minutes by addition of 20 μl MIP1α (final 10 ng/ml, diluted in HBSS) in the incubator. Wells 24 A-H were only stimulated with HBSS.
The stimulation was then stopped by putting the cell plates on ice (filled with cold water). The cells were then centrifuged at 1200 rpm and 4° C. for 3 minutes.
80 μl of supernatant was removed. The cells were again centrifuged at 1200 rpm and 4° C. for 3 minutes. The supernatant was then removed by turning plates upside down and 30 μl of lysis buffer were added. The plate was incubated at room temperature for 30 minutes under shaking. 16 μl were then transferred to a ProxiPlate Plus 384-well. 4 μl of the master mix (each conjugate diluted 1:20 with detection reagent) were added to each well and the plate was kept in the dark at room temperature for 4 hours.

[14] = tested on: IL-8-induced neutrophil shape change in human whole blood; assay: Whole blood neutrophil shape change assay (L); type: cell-based; conditions: Homo sapiens, Neutrophil, IL-8, human whole blood, read-out: Assay L WBSC IC50

SMILES	IC50 (PI 3-kinase alpha [1])	IC50 (PI 3-kinase beta [2])	IC50 (Vps34)	IC50 (PI 4-kinase beta)	IC50 (PI 3-kinase gamma [3])	IC50 (PI 3-kinase alpha [4])	IC50 (PI 3-kinase beta [5])	IC50 (PI 3-kinase delta [6])	IC50 (PI 3-kinase delta [7]; read-out: Assay F PI3Kδ IC50)	Assay M RLM CI(int) [8]	IC50 (mTOR)	IC50 (PI 3-kinase alpha [9])	IC50 (PI 3-kinase beta [10])	IC50 (PI 3-kinase delta [11])	IC50 (PI 3-kinase gamma [12])	IC50 (PI 3-kinase gamma [13])	IC50 [14]	IC50 (PI 3-kinase delta [7])
Cc1ncc(-c2nc(-c3cc(S(=O)(=O)NCC4CCCCO4)ccc3C)cnc2N)s1 (stereo not drawn) [Example 45.4, 3-(5-Amino-6-(2-methylthiazol-5-yl)pyrazin-2-yl)-4-methyl-N-((tetrahydro-2H-pyran-2-yl)methyl)benzenesulfonamide]	110 nM	880 nM	3000 nM	1800 nM	9 nM	1230 nM	2130 nM	580 nM	100 nM	502 µL/min/mg	–	–	–	–	–	–	–	–
Cc1ccc(S(=O)(=O)NCC2(C)COC2)cc1-c1cnc(N)c(-c2cnn(C)c2)n1 [Example 5, 3-[5-Amino-6-(1-methyl-1H-pyrazol-4-yl)-pyrazin-2-yl]-4-methyl-N-(3-methyl-oxetan-3-ylmethyl)-benzenesulfonamide]	680 nM	690 nM	> 10000 nM	6700 nM	12 nM	–	–	–	1000 nM	26 µL/min/mg	> 10000 nM	> 10000 nM	> 10000 nM	3450 nM	78 nM	261 nM	696 nM	–
Cc1ncn(-c2nc(-c3cc(S(=O)(=O)NCC(C)(C)O)ccc3C)cnc2N)n1 [Example 25, 3-[5-Amino-6-(3-methyl-[1,2,4]triazol-1-yl)-pyrazin-2-yl]-N-(2-hydroxy-2-methyl-propyl)-4-methyl-benzenesulfonamide]	620 nM	3150 nM	> 10000 nM	> 10000 nM	79 nM	–	–	–	1030 nM	71 µL/min/mg	210 nM	2190 nM	1700 nM	1390 nM	153 nM	2340 nM	742 nM	–
Cc1ncc(-c2nc(-c3cc(S(=O)(=O)NCC4(CO)CCOCC4)ccc3C)cnc2N)s1 [Example 45.9, 3-(5-Amino-6-(2-methylthiazol-5-yl)pyrazin-2-yl)-N-((4-(hydroxymethyl)tetrahydro-2H-pyran-4-yl)methyl)-4-methylbenzenesulfonamide]	30 nM	320 nM	–	4900 nM	39 nM	350 nM	880 nM	280 nM	100 nM	83 µL/min/mg	–	–	–	–	–	33 nM	–	–
Cc1ccc(S(=O)(=O)NCC2(C)COC2)cc1-c1cnc(N)c(-n2cncn2)n1 [Example 29, 3-(5-Amino-6-[1,2,4]triazol-1-yl-pyrazin-2-yl)-4-methyl-N-(3-methyl-oxetan-3-ylmethyl)-benzenesulfonamide]	1300 nM	6800 nM	> 9100 nM	5200 nM	9 nM	–	–	–	910 nM	62 µL/min/mg	> 9100 nM	4630 nM	8080 nM	6610 nM	206 nM	314 nM	956 nM	–
Cc1ncc(-c2nc(-c3cc(S(=O)(=O)NCC(C)(C)O)ccc3C)cnc2N)o1 [Example 126, 3-(5-Amino-6-(2-methyloxazol-5-yl)pyrazin-2-yl)-N-(2-hydroxy-2-methylpropyl)-4-methylbenzenesulfonamide]	280 nM	3100 nM	> 10000 nM	> 10000 nM	57 nM	4000 nM	> 10000 nM	4240 nM	1000 nM	20 µL/min/mg	–	–	–	–	–	–	–	–
Cc1ncc(-c2nc(-c3cc(S(=O)(=O)NC[C@H]4C[C@H](O)C4)ccc3C)cnc2N)s1 [Example 20b, trans-3-[5-Amino-6-(2-methyl-thiazol-5-yl)-pyrazin-2-yl]-N-(3-hydroxy-cyclobutylmethyl)-4-methyl-benzenesulfonamide]	50 nM	880 nM	400 nM	4980 nM	11 nM	–	–	–	–	30 µL/min/mg	3310 nM	660 nM	1730 nM	610 nM	14 nM	24 nM	106 nM	50 nM
Cc1ncc(-c2nc(-c3cc(S(=O)(=O)NC[C@H]4CCCO4)ccc3C)cnc2N)s1 (single isomer, unassigned) [Example 45.6b, (R)-3-(5-Amino-6-(2-methylthiazol-5-yl)pyrazin-2-yl)-4-methyl-N-((tetrahydrofuran-2-yl)methyl)benzenesulfonamide or (S)-3-(5-Amino-6-(2-methylthiazol-5-yl)pyrazin-2-yl)-4-methyl-N-((tetrahydrofuran-2-yl)methyl)benzenesulfonamide]	380 nM	–	–	> 10000 nM	42 nM	1760 nM	–	–	–	237 µL/min/mg	–	–	–	–	–	–	–	–
Cc1ccc(S(=O)(=O)NCC2(O)CCCC2)cc1-c1cnc(N)c(-n2cncn2)n1 [Example 127.35]	330 nM	1100 nM	> 10000 nM	6300 nM	50 nM	–	–	–	810 nM	202 µL/min/mg	7100 nM	> 10000 nM	2050 nM	> 10000 nM	85 nM	391 nM	847 nM	–
Cc1ccc(S(=O)(=O)NCC(C)(C)O)cc1-c1cnc(N)c(-c2cnc(C3CC3)s2)n1 [Example 21, 3-[5-Amino-6-(2-cyclopropyl-thiazol-5-yl)-pyrazin-2-yl]-N-(2-hydroxy-2-methyl-propyl)-4-methyl-benzenesulfonamide]	40 nM	150 nM	1400 nM	1500 nM	6 nM	–	–	–	80 nM	109 µL/min/mg	690 nM	510 nM	590 nM	460 nM	18 nM	90 nM	244 nM	–
Cc1ncc(-c2nc(-c3cc(S(=O)(=O)NC[C@H]4CCCO4)ccc3C)cnc2N)s1 (single isomer, unassigned) [Example 45.6a, (R)-3-(5-Amino-6-(2-methylthiazol-5-yl)pyrazin-2-yl)-4-methyl-N-((tetrahydrofuran-2-yl)methyl)benzenesulfonamide or (S)-3-(5-Amino-6-(2-methylthiazol-5-yl)pyrazin-2-yl)-4-methyl-N-((tetrahydrofuran-2-yl)methyl)benzenesulfonamide]	70 nM	–	–	4100 nM	9 nM	820 nM	–	–	–	228 µL/min/mg	–	–	–	–	–	–	–	–
Cc1ncc(-c2nc(-c3cc(S(=O)(=O)NC[C@H]4C[C@@H](O)C4)ccc3C)cnc2N)s1 [Example 20a, cis-3-[5-Amino-6-(2-methyl-thiazol-5-yl)-pyrazin-2-yl]-N-(3-hydroxy-cyclobutylmethyl)-4-methyl-benzenesulfonamide]	30 nM	1060 nM	> 9100 nM	5280 nM	7 nM	–	–	–	–	55 µL/min/mg	1880 nM	720 nM	1430 nM	420 nM	11 nM	23 nM	232 nM	50 nM
